Data as given in ChEMBL document CHEMBL5614376, “Discovery of MT-1207: A Novel, Potent Multitarget Inhibitor as a Promising Clinical Candidate for the Treatment of Hypertension” (J Med Chem, 2024).
Activity calls are given as the source filed them. The rule behind the calls is not given here.

Key:
[1] = Cmax in male Sprague-Dawley rat at 10 mg/kg, po qd treated for 13 weeks consecutively measured after recovery period on day 91 by UP/LC/MS/MS analysis; format: ADME, organism-based; conditions: in vivo, time 91 day
[2] = Metabolic stability in Beagle dog plasma assessed as enzymatic hydrolysis at 50 to 10000 ng/ml incubated upto 120 mins; format: ADME, cell-free, Canis lupus familiaris; conditions: 2 h, dose 50-10000 ng/ml
[3] = Cmax in Sprague-Dawley rat at 3 mg/kg, po measured for 24 hrs by UPLC/MS/MS analysis; format: ADME, organism-based; conditions: in vivo
[4] = Oral bioavailability in Sprague-Dawley rat at 9 mg/kg measured for 24 hrs by UPLC/MS/MS analysis; format: ADME, organism-based; conditions: in vivo
[5] = Cmax in female Sprague-Dawley rat at 10 mg/kg, po measured on day 1 by UP/LC/MS/MS analysis; format: ADME, organism-based; conditions: in vivo, time 1 day
[6] = Plasma protein binding in human at 1 uM incubated for 30 mins; format: ADME, cell-free; conditions: read-out: PPB (converted)
Rattus norvegicus [7] = experiment: Effect on serum creatinine level in 2K2C renovascular hypertensive Sprague-Dawley rat model at 10 mg/kg, po measured after 9 weeks by biochemical analysis; format: functional, organism-based
Rattus norvegicus [8] = experiment: Effect on postural hypotension in Sprague-Dawley rat assessed as change in systolic blood pressure at 5 mg/kg, po treated for >30 mins followed by induction of postural hypotension measured 60 secs after postural change (reference value: 127 +/- 10 mmHg); format: functional; conditions: time > 31 min
Rattus norvegicus [9] = experiment: Effect on postural hypotension in Sprague-Dawley rat assessed as change in systolic blood pressure at 5 mg/kg, po treated for >30 mins followed by induction of postural hypotension measured 5 secs after postural change (reference value: 126 +/- 12 mmHg); format: functional; conditions: time > 30.08 min, 0.5013 h
[10] = Tmax in male Sprague-Dawley rat at 10 mg/kg, po measured on day 1 by UP/LC/MS/MS analysis; format: ADME, organism-based; conditions: in vivo, time 1 day
[11] = Metabolic stability in Beagle dog liver microsomes assessed as compound remaining at 10 umol/L incubated upto 120 mins in presence of NADPH by LC-MS/MS analysis; format: ADME, Canis lupus familiaris, Microsome; conditions: dose 10 µmol/L, read-out: Stability
[12] = Cmax in Sprague-Dawley rat at 9 mg/kg, po measured for 24 hrs by UPLC/MS/MS analysis; format: ADME, organism-based; conditions: in vivo
[13] = Apparent volume of distribution during terminal phase in Sprague-Dawley rat at 1 mg/kg, po measured for 24 hrs by UPLC/MS/MS analysis; format: ADME, organism-based; conditions: in vivo, read-out: Vz/F
[14] = AUC (0 to t) in male Sprague-Dawley rat at 100 mg/kg, po measured on day 1 by UP/LC/MS/MS analysis; format: ADME, organism-based; conditions: in vivo, time 1 day
[15] = Plasma protein binding in Beagle dog at 1 uM incubated for 30 mins; format: ADME, cell-free, Canis lupus familiaris; conditions: read-out: PPB (converted)
Rattus norvegicus [16] = experiment: Effect on postural hypotension in Sprague-Dawley rat assessed as change in systolic blood pressure at 5 mg/kg, po treated for >30 mins followed by induction of postural hypotension measured 20 secs after postural change (reference value: 129 +/- 11 mmHg); format: functional; conditions: time > 30.33 min, 0.5055 h
[17] = AUC (0 to t) in Sprague-Dawley rat at 3 mg/kg, po measured for 24 hrs by UPLC/MS/MS analysis; format: ADME, organism-based; conditions: in vivo
[18] = Plasma protein binding in Cynomolgus monkey at 10 uM incubated for 30 mins; format: ADME, cell-free, Macaca fascicularis; conditions: read-out: PPB (converted)
[19] = Toxicity in female Sprague-Dawley rat assessed as reduction in body weight at 100 mg/kg, po qd treated for 4 days consecutively; format: organism-based; parameters: scale not given: the % may be the effect or the level left; conditions: in vivo, 96 h, time 4 day
[20] = Metabolic stability in human liver microsomes assessed as compound remaining at 10 umol/L incubated upto 120 mins in presence of NADPH by LC-MS/MS analysis; format: ADME, Microsome; conditions: dose 10 µmol/L, read-out: Stability
[21] = Acute toxicity in Sprague-Dawley rat assessed as unscheduled animal fatality at 250 to 1000 mg/kg, po single administration measured for 14 days; format: organism-based; conditions: in vivo, 336 h, dose 250-1000 mg/kg, time 14 day
[22] = Cmax in male Sprague-Dawley rat at 10 mg/kg, po measured on day 1 by UP/LC/MS/MS analysis; format: ADME, organism-based; conditions: in vivo, time 1 day
Rattus norvegicus [23] = experiment: Effect on postural hypotension in Sprague-Dawley rat assessed as change in systolic blood pressure at 10 mg/kg, po treated for >30 mins followed by induction of postural hypotension measured immediately after postural change (reference value: 131 +/- 9 mmHg); format: functional; conditions: 0.5 h
[24] = Tmax in male Sprague-Dawley rat at 100 mg/kg, po measured on day 1 by UP/LC/MS/MS analysis; format: ADME, organism-based; conditions: in vivo, time 1 day
[25] = Plasma protein binding in Sprague-Dawley rat at 0.1 uM incubated for 30 mins; format: ADME, cell-free; conditions: read-out: PPB (converted)
[26] = Metabolic stability in human plasma assessed as enzymatic hydrolysis at 50 to 10000 ng/ml incubated upto 120 mins; format: ADME, cell-free; conditions: 2 h, dose 50-10000 ng/ml
Rattus norvegicus [27] = experiment: Effect on postural hypotension in Sprague-Dawley rat assessed as change in systolic blood pressure at 5 mg/kg, po treated for >30 mins followed by induction of postural hypotension measured 10 secs after postural change (reference value: 127 +/- 12 mmHg); format: functional; conditions: time > 30.17 min, 0.5028 h
[28] = Apparent volume of distribution during terminal phase in Sprague-Dawley rat at 3 mg/kg, po measured for 24 hrs by UPLC/MS/MS analysis; format: ADME, organism-based; conditions: in vivo, read-out: Vz/F
[29] = Metabolic stability in Beagle dog liver microsomes assessed as drug elimination at 10 umol/L incubated for 5 mins in presence of NADPH by LC-MS/MS analysis; format: ADME, Canis lupus familiaris, Microsome; conditions: 10 µM, dose 10 µmol/L
[30] = Acute toxicity in Sprague-Dawley rat with single oral administration measured for 14 days; conditions: in vivo, time 14 day
[31] = Tmax in male Sprague-Dawley rat at 30 mg/kg, po qd treated for 13 weeks consecutively measured after recovery period on day 91 by UP/LC/MS/MS analysis; format: ADME, organism-based; conditions: in vivo, time 91 day
[32] = Tmax in Sprague-Dawley rat at 3 mg/kg, po measured for 24 hrs by UPLC/MS/MS analysis; format: ADME, organism-based; conditions: in vivo
[33] = Tmax in female Sprague-Dawley rat at 10 mg/kg, po measured on day 1 by UP/LC/MS/MS analysis; format: ADME, organism-based; conditions: in vivo, time 1 day
[34] = AUC (0 to t) in female Sprague-Dawley rat at 10 mg/kg, po qd treated for 13 weeks consecutively measured after recovery period on day 91 by UP/LC/MS/MS analysis; format: ADME, organism-based; conditions: in vivo, time 91 day
[35] = Oral bioavailability in Sprague-Dawley rat at 1 mg/kg measured for 24 hrs by UPLC/MS/MS analysis; format: ADME, organism-based; conditions: in vivo
[36] = Tmax in female Sprague-Dawley rat at 30 mg/kg, po measured on day 1 by UP/LC/MS/MS analysis; format: ADME, organism-based; conditions: in vivo, time 1 day
[37] = Toxicity in male Sprague-Dawley rat assessed as change in body weight at 30 mg/kg, po qd treated for 13 weeks consecutively measured post-cessation of treatment; format: organism-based; conditions: in vivo, 2184 h
Rattus norvegicus [38] = experiment: Effect on postural hypotension in Sprague-Dawley rat assessed as change in systolic blood pressure at 10 mg/kg, po treated for >30 mins followed by induction of postural hypotension measured 10 secs after postural change (reference value: 127 +/- 12 mmHg); format: functional; conditions: time > 30.17 min, 0.5028 h

## Cl.c1ccc2c(c1)nnn2CCCCN1CCN(c2nsc3ccccc23)CC1
[1]
  Cmax: 36.2 ng/mL
[2]
  Stability: Stable
[3]
  Cmax: 85.7 ng/mL
[4]
  bioavailability: 15.3%
[5]
  Cmax: 88.7 ng/mL
[6]
  fraction unbound at 0.5 h, 1 µM: 0.004
Rattus norvegicus [7]
  Activity: Active
Rattus norvegicus [8]
  Activity: 83 mmHg
Rattus norvegicus [9]
  Activity: 79 mmHg
[10]
  Tmax: 1 h
[11]
  remaining at 2 h, 10 µM: 6.04%
[12]
  Cmax: 186 ng/mL
[13]
  Vd/F: 51.5 L
[14]
  AUC(0-t) at 24 h: 1460 ng·h/mL
[15]
  fraction unbound at 0.5 h, 1 µM: 0.006
Rattus norvegicus [16]
  Activity: 83 mmHg
[17]
  AUC(0-t) at 24 h: 421 ng·h/mL
[18]
  fraction unbound at 0.5 h, 10 µM: 0.005
[19]
  Activity: ~ 3.3%
[20]
  remaining at 2 h, 10 µM: 23.9%
[21]
  Activity: Non-Toxic
[22]
  Cmax: 19.2 ng/mL
Rattus norvegicus [23]
  Activity: 89 mmHg
[24]
  Tmax: 1.3 h
[25]
  fraction unbound at 0.5 h, 0.1 µM: 0.022
[26]
  Stability: Stable
Rattus norvegicus [27]
  Activity: 82 mmHg
[28]
  Vd/F: 22.4 L
[29]
  Drug excretion: Active
[30]
  MTD at 336 h: > 1000 mg/kg
[31]
  Tmax: 1 h
[32]
  Tmax: 2 h
[33]
  Tmax: 1.3 h
[34]
  AUC(0-t) at 2184 h: 439 ng·h/mL
[35]
  bioavailability: 11.7%
[36]
  Tmax: 1 h
[37]
  Activity: Non-Toxic
Rattus norvegicus [38]
  Activity: 84 mmHg
